# Measured values taken from patent US20170157301A1, “LEOLIGIN DERIVATIVES AS SMOOTH MUSCLE CELL PROLIFERATION INHIBITORS” (TECHNISCHE UNIVERSITAET WIEN, priority 2014, published 2017).
# System: SMCs in relation to ECs
# Assay: activity ratio: efficiency towards SMCs / efficiency towards ECs
# Type: cell-based
# Conditions: activity ratio class; order in Table 1 follows the calculated values
# Method: For determination of vascular SMC proliferation, 0.5×10^4 viable rat aortic SMCs per well were seeded in SMC growth medium (DMEM/F12 medium with 20% serum, 30 μg/mL Gentamicin and 15 ng/mL Amphotericin) in 96-well plates. 24 h later, the medium was removed, the cells were washed once with SMC starvation medium (DMEM/F12 medium with 0.1% serum, 0.2% BSA, 30 μg/mL Gentamicin and 15 ng/mL Amphotericin) and incubated in starvation medium for further 24 h.
# The quiescent cells were then pretreated for 30 min with the test compounds and induced to proliferate with 20 ng/mL platelet-derived growth factor (PDGF). Unstimulated cells were utilized for normalization and estimation of the basal level of proliferation. The final concentration of the solvent vehicle, dimethyl sulfoxide (DMSO), was the same (0.1%) in all wells. 48 h later, the SMC proliferation was quantified by resazurin dye conversion for 2 h as previously described (H. Joa et al., J. Nat. Prod. 74(6), 1513-6 (2011)).
# For determination of endothelial cell proliferation, 0.5×10^4 HUVECtert immortalized human umbilical vein endothelial cells (H. B. Schiller et al., Mol. Biol. Cell. 20(3), 745-756 (2009)) were seeded in 96-well plates for 24 h in HUVEC Complete Medium (EBM™ growth medium supplemented with 10% fetal bovine serum, EBM™ SingleQuots (Lonza, Basel, Switzerland), 100 U/mL benzylpenicillin, 100 μg/mL streptomycin, and 1% amphotericin). Afterwards, the medium was exchanged with fresh HUVEC Complete Medium and cells were treated with the indicated compounds for 48 h. After the end of the incubation period, the medium was removed, the cells were washed once with 200 μL/well PBS, and treated with 150 μL HUVEC Complete Medium containing 10 μg/mL resazurin. 2 h later, the fluorescence was measured at a wavelength of 580 nm, with excitation wavelength 535 nm in a 96-well plate reader (Tecan GENios Pro; Tecan Group Ltd., Mannedorf, Switzerland).
# In every case, the percentage of viable cells was subtracted from 1, in order to obtain a measure of efficiency of the test compounds towards each particular type of cells, and subsequently, the efficiency quotient towards SMCs and ECs was calculated and taken as the “activity ratio” and thus as a measure of selective efficiency of each test compound towards SMCs in relation to ECs. For example, the synthetic Leoligin with the bio ID 2418 prepared in Comparative Example 27 as compound 10-22 gave the following results:
# Due to the usual fluctuations in determining surviving cells, which amount to approximately ±10%, and due to the relatively strong resulting fluctuations in calculating quotients—especially if the inhibitory effect of said novel compounds towards ECs is very poor—said threshold value of 1.50 for the activity ratio, as already mentioned above, was introduced.
# In the following, a table listing every compound prepared in examples and comparative Examples for which an activity ratio (a.r.) of >1.0 was determined, is given.
row,SMILES,a.r. code
1,"COc1ccc([C@H]2OC[C@H](Cc3ccc(C(C)(C)C)cc3)[C@@H]2CO)cc1OC [Example 1, ((2S,3R,4R)-4-(4-(tert-butyl)benzyl)-2-(3,4-dimethoxyphenyl)tetrahydrofuran-3-yl)methanol]",A (a.r. ≧ 1.50)
2,"COc1ccc(C[C@H]2CO[C@H](c3ccc(OC)c(OC)c3)[C@H]2COC(=O)C2CCCCC2)cc1OC [Comparative Example 37, ((2S,3R,4R)-4-(3,4-dimethoxybenzyl)-2-(3,4-dimethoxyphenyl)tetrahydrofuran-3-yl)methyl cyclohexanecarboxylate]",V (1.0 < a.r. < 1.50)
3,"COc1ccc(C[C@H]2CO[C@H](c3ccccc3)[C@H]2COC(=O)C2CCCCC2)cc1OC [Example 28, ((2S,3R,4R)-4-(3,4-dimethoxybenzyl)-2-phenyltetrahydrofuran-3-yl)methyl cyclohexanecarboxylate]",A (a.r. ≧ 1.50)
4,"C/C=C(/C)C(=O)OC[C@H]1[C@@H](Cc2ccc(CCCC)cc2)CO[C@@H]1c1ccc(OC)c(OC)c1 [Example 13, (Z)-((2S,3R,4R)-4-(4-butylbenzyl)-2-(3,4-dimethoxyphenyl)tetrahydrofuran-3-yl)methyl 2-methylbut-2-enoate]",AAA (a.r. ≧ 5.0)
5,"C/C=C(/C)C(=O)OC[C@H]1[C@@H](Cc2ccc(C(F)(F)F)cc2)CO[C@@H]1c1ccc(F)cc1 [Example 15, (Z)-((2S,3R,4R)-2-(4-fluorophenyl)-4-(4-(trifluoromethyl)benzyl)tetrahydro-furan-3-yl)methyl 2-methylbut-2-enoate]",AAA (a.r. ≧ 5.0)
6,"COc1ccc([C@H]2OC[C@H](Cc3ccc(C(F)(F)F)cc3)[C@@H]2CO)cc1OC [Example 4, ((2S,3R,4R)-2-(3,4-dimethoxyphenyl)-4-(4-(trifluoromethyl)benzyl)tetrahydro-furan-3-yl)methanol]",A (a.r. ≧ 1.50)
7,"COc1ccc(C[C@H]2CO[C@H](c3ccc(OC)c(OC)c3)[C@H]2COC(=O)/C=C/c2ccccc2)cc1OC [Example 24, ((2S,3R,4R)-4-(3,4-dimethoxybenzyl)-2-(3,4-dimethoxyphenyl)tetrahydrofuran-3-yl)methyl cinnamate]",AA (a.r. ≧ 2.0)
8,"COc1cc([C@H]2OC[C@H](Cc3ccc(C)cc3)[C@@H]2COC(=O)C2CCCC2)cc(OC)c1OC [Comparative Example 39, ((2S,3R,4R)-4-(4-methylbenzyl)-2-(3,4,5-trimethoxyphenyl)tetrahydrofuran-3-yl)methyl cyclopentanecarboxylate]",V (1.0 < a.r. < 1.50)
9,"COc1ccc(C[C@H]2CO[C@H](c3cc(OC)c(OC)c(OC)c3)[C@H]2COC(=O)C2CCCCC2)cc1OC [Example 39, ((2S,3R,4R)-4-(3,4-dimethoxybenzyl)-2-(3,4,5-trimethoxyphenyl)tetrahydro-furan-3-yl)methyl cyclohexanecarboxylate]",A (a.r. ≧ 1.50)
10,"C/C=C(/C)C(=O)OC[C@H]1[C@@H](Cc2ccc(C(=O)OCC)cc2)CO[C@@H]1c1cc(OC)c(OC)c(OC)c1 [Example 22, ethyl 4-(((3R,4R,5S)-4-((((Z)-2-methylbut-2-enoyl)oxy)methyl)-5-(3,4,5-trimethoxyphenyl)tetrahydrofuran-3-yl)methyl)benzoate]",AA (a.r. ≧ 2.0)
11,"COc1ccc(C[C@H]2CO[C@H](c3cc(OC)c(OC)c(OC)c3)[C@H]2COC(=O)C2=CCCC2)cc1OC [Example 35, ((2S,3R,4R)-4-(3,4-dimethoxybenzyl)-2-(3,4,5-trimethoxyphenyl)tetrahydro-furan-3-yl)methyl cyclopent-1-enecarboxylate]",AA (a.r. ≧ 2.0)
12,"C/C=C(/C)C(=O)OC[C@H]1[C@@H](Cc2ccc(C(C)(C)C)cc2)CO[C@@H]1c1ccc(F)cc1 [Example 18, (Z)-((2S,3R,4R)-4-(4-(tert-butyl)benzyl)-2-(4-fluorophenyl)tetrahydrofuran-3-yl)methyl 2-methylbut-2-enoate]",AAA (a.r. ≧ 5.0)
13,"COc1ccc([C@H]2OC[C@H](Cc3ccc(C)cc3)[C@@H]2CO)cc1OC [Example 2, ((2S,3R,4R)-2-(3,4-dimethoxyphenyl)-4-(4-methylbenzyl)tetrahydrofuran-3-yl)-methanol]",AAA (a.r. ≧ 5.0)
14,"COc1cc([C@H]2OC[C@H](Cc3ccccc3)[C@@H]2CO)cc(OC)c1OC [Example 7, ((2S,3R,4R)-4-benzyl-2-(3,4,5-trimethoxyphenyl)tetrahydrofuran-3-yl)methanol]",AAA (a.r. ≧ 5.0)
15,"CCCCc1ccc(C[C@H]2CO[C@H](c3ccc(OC)c(OC)c3)[C@H]2CO)cc1 [Example 5, ((2S,3R,4R)-4-(4-butylbenzyl)-2-(3,4-dimethoxyphenyl)tetrahydrofuran-3-yl)-methanol]",AA (a.r. ≧ 2.0)
16,"COc1ccc(C[C@H]2CO[C@H](c3ccc(OC)c(OC)c3)[C@H]2COC(=O)C2CCCC2)cc1OC [Comparative Example 36, ((2S,3R,4R)-4-(3,4-dimethoxybenzyl)-2-(3,4-dimethoxyphenyl)tetrahydrofuran-3-yl)methyl cyclopentanecarboxylate]",V (1.0 < a.r. < 1.50)
17,"C/C=C(/C)C(=O)OC[C@H]1[C@@H](Cc2ccc(C(C)(C)C)cc2)CO[C@@H]1c1ccc(OC)c(OC)c1 [Example 10, (Z)-((2S,3R,4R)-4-(4-(tert-butyl)benzyl)-2-(3,4-dimethoxyphenyl)tetrahydro-furan-3-yl)methyl 2-methylbut-2-enoate]",AA (a.r. ≧ 2.0)
18,"C/C=C(/C)C(=O)OC[C@H]1[C@@H](Cc2ccccn2)CO[C@@H]1c1ccc(OC)c(OC)c1 [Example 12, (Z)-((2S,3R,4R)-2-(3,4-dimethoxyphenyl)-4-(pyridin-2-ylmethyl)tetrahydro-furan-3-yl)methyl 2-methylbut-2-enoate]",AAA (a.r. ≧ 5.0)
19,"C/C=C(/C)C(=O)OC[C@H]1[C@@H](Cc2ccc(C(F)(F)F)cc2)CO[C@@H]1c1cc(OC)c(OC)c(OC)c1 [Comparative Example 32, (Z)-((2S,3R,4R)-4-(4-(trifluoromethyl)benzyl)-2-(3,4,5-trimethoxyphenyl)-tetrahydrofuran-3-yl)methyl 2-methylbut-2-enoate]",V (1.0 < a.r. < 1.50)
20,"C/C=C(/C)C(=O)OC[C@H]1[C@@H](Cc2ccc(C(F)(F)F)cc2)CO[C@@H]1c1ccccc1 [Example 16, (Z)-((2S,3R,4R)-2-phenyl-4-(4-(trifluoromethyl)benzyl)tetrahydrofuran-3-yl)-methyl 2-methylbut-2-enoate]",AAA (a.r. ≧ 5.0)
21,"COc1ccc(C[C@H]2CO[C@H](c3ccc(OC)c(OC)c3)[C@H]2COC(=O)C(C)(C)C)cc1OC [Comparative Example 45, ((2S,3R,4R)-4-(3,4-dimethoxybenzyl)-2-(3,4-dimethoxyphenyl)tetrahydrofuran-3-yl)methyl pivalate]",V (1.0 < a.r. < 1.50)
22,"COc1ccc([C@H]2OC[C@H](Cc3ccc(C(F)(F)F)cc3)[C@@H]2COC(=O)c2ccccc2C)cc1OC [Comparative Example 40, ((2S,3R,4R)-2-(3,4-dimethoxyphenyl)-4-(4-(trifluoromethyl)benzyl)tetrahydro-furan-3-yl)methyl 2-methylbenzoate]",V (1.0 < a.r. < 1.50)
23,"COc1ccc(C[C@H]2CO[C@H](c3cc(OC)c(OC)c(OC)c3)[C@H]2COC(=O)C(C)C)cc1OC [Example 38, ((2S,3R,4R)-4-(3,4-dimethoxybenzyl)-2-(3,4,5-trimethoxyphenyl)tetrahydro-furan-3-yl)methyl isobutyrate]",AAA (a.r. ≧ 5.0)
24,"C/C=C(/C)C(=O)OC[C@H]1[C@@H](Cc2ccc(OC)cc2)CO[C@@H]1c1ccccc1 [Comparative Example 29, (Z)-((2S,3R,4R)-4-(4-methoxybenzyl)-2-phenyltetrahydrofuran-3-yl)methyl 2-methylbut-2-enoate]",V (1.0 < a.r. < 1.50)
25,"C/C=C(/C)C(=O)OC[C@H]1[C@@H](Cc2ccc(OC)cc2)CO[C@@H]1c1cc(OC)c(OC)c(OC)c1 [Comparative Example 33, (Z)-((2S,3R,4R)-4-(4-methoxybenzyl)-2-(3,4,5-trimethoxyphenyl)tetrahydro-furan-3-yl)methyl 2-methylbut-2-enoate]",V (1.0 < a.r. < 1.50)
